Source: publication PMC4051504, “Structural and functional analysis of the human spliceosomal DEAD-box helicase Prp28” (Acta Crystallographica Section D: Biological Crystallography, 2014)
pKd: −log10 of the molar value.

Target: T1, hPrp28ΔN (Homo sapiens, UniProt Q9BUQ8)
T1 construct: gene DDX23; helicase domain plus short N-terminal extension, residues 338-820; GST tag cleaved with PreScission protease; E. coli BL21 Star (DE3)
T1 sequence (Q9BUQ8 338-820): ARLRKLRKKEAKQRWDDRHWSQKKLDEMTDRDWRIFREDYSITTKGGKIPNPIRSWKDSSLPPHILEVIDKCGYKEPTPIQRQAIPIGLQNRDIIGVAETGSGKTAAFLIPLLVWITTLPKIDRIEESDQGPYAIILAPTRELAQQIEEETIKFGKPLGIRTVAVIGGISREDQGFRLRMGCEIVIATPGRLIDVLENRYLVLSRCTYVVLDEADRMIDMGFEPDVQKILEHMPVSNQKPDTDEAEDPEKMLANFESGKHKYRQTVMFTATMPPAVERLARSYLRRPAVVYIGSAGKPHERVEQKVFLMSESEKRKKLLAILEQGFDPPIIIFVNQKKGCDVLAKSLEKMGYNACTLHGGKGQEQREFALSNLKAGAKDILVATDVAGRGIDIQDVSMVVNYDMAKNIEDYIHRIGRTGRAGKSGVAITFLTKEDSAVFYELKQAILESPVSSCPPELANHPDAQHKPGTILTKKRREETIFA
Test: fluorescence titration, Trp emission at […] nm (excitation […] nm)
Assay type: binding

pKd: < 3.40
Structure (SMILES): CNc1ccccc1C(=O)O[C@H]1[C@@H](O)[C@H](n2cnc3c(N)ncnc32)O[C@@H]1CO[P@@](=O)(O)O[P@](=O)(O)OP(=O)(O)O [mant-ATP]
